Reference: patent publication US4169096A, “Antibiotic compounds” (priority 1977, dated 1979)
Values after ≈ are worked out from the molar mass of the structure shown. Like-named read-outs stand apart in the source and are kept apart here.

Assays:
[1] = system: Klebsiella pneumoniae A9678; test: MIC, serial two-fold agar dilution, aerobic bacteria; type: cell-based
[2] = system: Serratia marcescens A20019; test: as above; type: cell-based
[3] = system: Pseudomonas aeruginosa A9843; test: as above; type: cell-based; details: test medium not given
Proteus mirabilis A9554 = test: as above; type: cell-based; details: Nutrient agar (Eiken)
Proteus morganii A9553 = test: as above; type: cell-based; details: Morganella morganii, Nutrient agar (Eiken)
[4] = system: Staphylococcus aureus 209P; test: as above; type: cell-based; details: Nutrient agar (Eiken)
[5] = system: Staphylococcus aereus Smith; test: as above; type: cell-based; details: Nutrient agar (Eiken), read-out: MIC
[6] = system: Staphylococcus aureus #52-34; test: as above; type: cell-based; details: Nutrient agar (Eiken), read-out: MIC
[7] = system: Bacillus subtilis PCI-219; test: as above; type: cell-based; details: PCI219, Nutrient agar (Eiken), read-out: MIC
[8] = system: Neisseria meningitidis A20049; test: as above; type: cell-based
[9] = system: Neisseria gonorrhoeae A15112; test: as above; type: cell-based; details: GC medium (Eiken)
[10] = system: Neisseria gonorrhoeae A20154; test: as above; type: cell-based; details: GC medium (Eiken)
[11] = system: Hemophilus influenzae A20188; test: as above; type: cell-based; details: Haemophilus influenzae, GC medium (Eiken)
[12] = system: Peptostreptococcus anaerobius B43; type: cell-based; details: GAM agar medium (Nissui)
C. perfringens A9635 [13] = test: microbe, parasite or virus in culture; type: cell-based, Clostridium perfringens; details: inoculum size 7 × 10^6 cell/ml
B. fragilis A20928-1 = test: Bactericidal activity (MIC & MBC); type: cell-based; details: Bacteroides fragilis, A209281; inoculum size 2.8 × 10^6 cell/ml; broth
C. perfringens A9635 [14] = test: microbe, parasite or virus in culture; type: cell-based; details: Clostridium perfringens, A9635, 18 h
S. pyogenes A20201 [15] = test: Bactericidal activity (MIC & MBC); type: cell-based; details: Streptococcus pyogenes, A20201, inoculum size 6 × 10^5 cell/ml
B. fragilis A20926 = test: Localized infection with B. fragilis in mice; type: in vivo; details: for mean score: control 4.2; for sum of score: control 21; for infectivity level: control 100%
C. perfringens A9635 [16] = test: animal or person; type: in vivo, mice; details: Clostridium perfringens, A9635, in Mus musculus, 120 h, read-out: PD50
S. pyogenes A20201 [17] = test: Systemic infection with S. pyogenes in mice; type: in vivo; details: Streptococcus pyogenes, A20201, 120 h, just before challenge, determined after 5 days, read-out: PD50
[18] = system: C. perfringens or S. pyrogenes; type: in vivo, mice; details: mouse, in vivo
[19] = system: Bacteroides fragilis A20929; test: microbe, parasite or virus in culture
[20] = system: Bacteroides fragilis A20930; test: microbe, parasite or virus in culture
[21] = system: Bacteroides fragilis A20932; test: microbe, parasite or virus in culture
[22] = system: Sphaerophorus pseudonecrophorus A20013; test: microbe, parasite or virus in culture; details: Fusobacterium necrophorum
[23] = system: Fusobacterium mortiferum ATCC 9817; test: microbe, parasite or virus in culture; details: ATCC9817
[24] = system: Fusobacterium varium ATCC 8501; test: microbe, parasite or virus in culture; details: ATCC8501
[25] = system: Acidoaminococcus fermentans ATCC 25085; test: microbe, parasite or virus in culture
[26] = system: Veillonella parvula ATCC 17745; test: microbe, parasite or virus in culture; details: ATCC17745
[27] = system: Clostridium caproicum IAM 19228; test: microbe, parasite or virus in culture; details: IAM19228
[28] = system: Peptocuccus prevotii ATCC 9321; test: microbe, parasite or virus in culture
[29] = system: Peptococcus aerogenes ATCC 14963; test: microbe, parasite or virus in culture; details: Peptoniphilus asaccharolyticus, ATCC14963
[30] = subcutaneous or oral
in vivo = details: mouse

In the case of `CCC[C@@H]1C[C@@H](C(=O)N[C@@H]([C@H]2O[C@H](SC)[C@H](O)[C@@H](O)[C@H]2O)[C@H](C)Cl)N(C)C1` [Clindamycin], the MIC [1] is reported as 100 µg/mL (≈ 235 µM), the MIC [2] is reported as 50 µg/mL (≈ 118 µM) and the MIC [3] is reported as greater than 100 µg/mL. For the same compound, the MIC (Proteus mirabilis A9554) was 100 µg/mL (≈ 235 µM), the MIC (Proteus morganii A9553) was 100 µg/mL (≈ 235 µM) and the MIC [4] was 0.1 µg/mL (≈ 0.235 µM). For the same compound, the MIC [5] was 0.1 µg/mL (≈ 0.235 µM), the MIC [6] was 0.1 µg/mL (≈ 0.235 µM) and the MIC [7] was 0.8 µg/mL (≈ 1.88 µM). For the same compound, the MIC [8] was 0.05 µg/mL (≈ 0.118 µM), the MIC [9] was 0.2 µg/mL (≈ 0.471 µM) and the MIC [10] was 0.2 µg/mL (≈ 0.471 µM). For the same compound, the MIC [11] was 0.8 µg/mL (≈ 1.88 µM), the MIC [12] was 0.8 µg/mL (≈ 1.88 µM) and the “MIC in GAM agar” value (C. perfringens A9635 [13]) was 0.0125 µg/mL (≈ 0.0294 µM). For the same compound, the MIC (B. fragilis A20928-1) was 0.05 µg/mL (≈ 0.118 µM), the MBC (C. perfringens A9635 [14]) was 0.05 µg/mL (≈ 0.118 µM) and the MIC (S. pyogenes A20201 [15]; broth) was 0.05 µg/mL (≈ 0.118 µM). For the same compound, the MBC (S. pyogenes A20201 [15]; growth of less than 100 colonies per plate, 18 hours at 37° C., read-out: MBC) was 6.3 µg/mL (≈ 14.8 µM), the “comparative in vivo activity” value (B. fragilis A20926; B. fragilis localized infection) was “more active than Bu-2313B or Flagyl” and the mean score (B. fragilis A20926; oral, 6.3 × 5 mg/kg) was 2.6. The sum of score (B. fragilis A20926; oral, 6.3 × 5 mg/kg) was 13, the infectivity level (B. fragilis A20926; oral, 6.3 × 5 mg/kg) was 61.9% and the mean score (B. fragilis A20926; oral, 25 × 5 mg/kg) was 1.8. It also gave a sum of score (B. fragilis A20926; oral, 25 × 5 mg/kg) of 9, an infectivity level (B. fragilis A20926; oral, 25 × 5 mg/kg) of 42.9% and a sum of score (B. fragilis A20926; oral, 100 × 5 mg/kg) of 2. It also gave an infectivity level (B. fragilis A20926; oral, 100 × 5 mg/kg) of 9.5%, a mean score (B. fragilis A20926; oral, […] 5 mg/kg) of 4.0 and a sum of score (B. fragilis A20926; oral, […] 5 mg/kg) of 20. It also gave an infectivity level (B. fragilis A20926; oral, […] 5 mg/kg) of 95.2%, a mean score (B. fragilis A20926; subcutaneous, 0.8 × 5 mg/kg) of 4.0 and a sum of score (B. fragilis A20926; subcutaneous, 0.8 × 5 mg/kg) of 20. It also gave an infectivity level (B. fragilis A20926; subcutaneous, 0.8 × 5 mg/kg) of 95.2%, a mean score (B. fragilis A20926; subcutaneous, 3.1 × 5 mg/kg) of 2.0 and a sum of score (B. fragilis A20926; subcutaneous, 3.1 × 5 mg/kg) of 10. It also gave an infectivity level (B. fragilis A20926; subcutaneous, 3.1 × 5 mg/kg) of 47.6%, a mean score (B. fragilis A20926; subcutaneous, 50 × 5 mg/kg) of 0.8 and a sum of score (B. fragilis A20926; subcutaneous, 50 × 5 mg/kg) of 4. For the same compound, the infectivity level (B. fragilis A20926; subcutaneous, 50 × 5 mg/kg) was 19.0%, the mean score (B. fragilis A20926; subcutaneous, […] 5 mg/kg) was 1.4 and the sum of score (B. fragilis A20926; subcutaneous, […] 5 mg/kg) was 7. For the same compound, the infectivity level (B. fragilis A20926; subcutaneous, […] 5 mg/kg) was 33.3%, the ED50 (C. perfringens A9635 [16]; po) was 0.22 mg/kg and the ED50 (C. perfringens A9635 [16]; sc) was 0.08 mg/kg. The ED50 (S. pyogenes A20201 [17]; po, NA: no activity) was 2.1 mg/kg, the ED50 (S. pyogenes A20201 [17]; sc) was 0.3 mg/kg and the “comparative in vivo activity” value [18] was “the most active”. For the same compound, the MIC [19] was 0.05 µg/mL (≈ 0.118 µM), the MIC [20] was 0.05 µg/mL (≈ 0.118 µM) and the MIC [21] was 0.05 µg/mL (≈ 0.118 µM). The MIC [22] was 0.05 µg/mL (≈ 0.118 µM), the MIC [23] was 0.05 µg/mL (≈ 0.118 µM) and the MIC [24] was 0.05 µg/mL (≈ 0.118 µM). It also gave an MIC [25] of 0.05 µg/mL (≈ 0.118 µM), an MIC [26] of 0.05 µg/mL (≈ 0.118 µM) and an MIC [27] of 0.1 µg/mL (≈ 0.235 µM). The MIC [28] was 0.1 µg/mL (≈ 0.235 µM) and the MIC [29] was 0.2 µg/mL (≈ 0.471 µM).
`Cc1ncc([N+](=O)[O-])n1CCO` [Flagyl] gave a mean score (B. fragilis A20926; oral, 6.3 × 5 mg/kg) of 3.4, a sum of score (B. fragilis A20926; oral, 6.3 × 5 mg/kg) of 17 and an infectivity level (B. fragilis A20926; oral, 6.3 × 5 mg/kg) of 81.0%. It also gave a mean score (B. fragilis A20926; oral, 25 × 5 mg/kg) of 2.6, a sum of score (B. fragilis A20926; oral, 25 × 5 mg/kg) of 13 and an infectivity level (B. fragilis A20926; oral, 25 × 5 mg/kg) of 61.9%. The mean score (B. fragilis A20926; oral, 100 × 5 mg/kg) was 1.6, the sum of score (B. fragilis A20926; oral, 100 × 5 mg/kg) was 8 and the infectivity level (B. fragilis A20926; oral, 100 × 5 mg/kg) was 38.1%. The mean score (B. fragilis A20926; oral, […] 5 mg/kg) was 4.0, the sum of score (B. fragilis A20926; oral, […] 5 mg/kg) was 20 and the infectivity level (B. fragilis A20926; oral, […] 5 mg/kg) was 95.2%. For the same compound, the mean score (B. fragilis A20926; subcutaneous, 0.8 × 5 mg/kg) was 4.0, the sum of score (B. fragilis A20926; subcutaneous, 0.8 × 5 mg/kg) was 20 and the infectivity level (B. fragilis A20926; subcutaneous, 0.8 × 5 mg/kg) was 95.2%. The mean score (B. fragilis A20926; subcutaneous, 3.1 × 5 mg/kg) was 3.4, the sum of score (B. fragilis A20926; subcutaneous, 3.1 × 5 mg/kg) was 17 and the infectivity level (B. fragilis A20926; subcutaneous, 3.1 × 5 mg/kg) was 81.0%. The mean score (B. fragilis A20926; subcutaneous, 50 × 5 mg/kg) was 2.0, the sum of score (B. fragilis A20926; subcutaneous, 50 × 5 mg/kg) was 10 and the infectivity level (B. fragilis A20926; subcutaneous, 50 × 5 mg/kg) was 47.6%. It also gave a mean score (B. fragilis A20926; subcutaneous, […] 5 mg/kg) of 2.4, a sum of score (B. fragilis A20926; subcutaneous, […] 5 mg/kg) of 12 and an infectivity level (B. fragilis A20926; subcutaneous, […] 5 mg/kg) of 57.1%. For the same compound, the ED50 (C. perfringens A9635 [16]; po) was 60 mg/kg, the ED50 (C. perfringens A9635 [16]; sc) was 31 mg/kg and the “absorption compared with Bu-2313B” value [30] was “better absorptions than Bu-2313B”. For the same compound, the concentration at 0.5 h (in vivo; po, 25 mg/kg) was 8800 ng/mL, the concentration at 1 h (in vivo; po, 25 mg/kg) was 6700 ng/mL and the concentration at 3 h (in vivo; po, 25 mg/kg) was 6100 ng/mL. For the same compound, the concentration at 0.5 h (in vivo; po, 50 mg/kg) was 20000 ng/mL, the concentration at 1 h (in vivo; po, 50 mg/kg) was 15000 ng/mL and the concentration at 3 h (in vivo; po, 50 mg/kg) was 11000 ng/mL. For the same compound, the concentration at 0.5 h (in vivo; po, 100 mg/kg) was 56000 ng/mL, the concentration at 1 h (in vivo; po, 100 mg/kg) was 41000 ng/mL and the concentration at 3 h (in vivo; po, 100 mg/kg) was 24000 ng/mL. It also gave a concentration at 5 h (in vivo; po, 100 mg/kg) of 13000 ng/mL, a concentration at 0.5 h (in vivo; sc, 25 mg/kg) of 15000 ng/mL and a concentration at 1 h (in vivo; sc, 25 mg/kg) of 12000 ng/mL. It also gave a concentration at 2 h (in vivo; sc, 25 mg/kg) of 8300 ng/mL, a concentration at 0.5 h (in vivo; sc, 50 mg/kg) of 32000 ng/mL and a concentration at 1 h (in vivo; sc, 50 mg/kg) of 26000 ng/mL. The concentration at 2 h (in vivo; sc, 50 mg/kg) was 12000 ng/mL, the concentration at 0.5 h (in vivo; sc, 100 mg/kg) was 121000 ng/mL and the concentration at 1 h (in vivo; sc, 100 mg/kg) was 98000 ng/mL. It also gave a concentration at 2 h (in vivo; sc, 100 mg/kg) of 40000 ng/mL.
